Results taken from patent US12146010B2, “Amine co-initiator mixture” (Arkema UK Limited, priority 2019, dated 2024).

Key:
[1] = Solubility of amines and amine mixtures in acrylate resins; type: physicochemical; settings: for Solubility (% w/w at ~15-20° C.): stays in solution at least 7 days, above 10% w/w not tested; for Dissolution of the solid material: at 1% w/w in the acrylate resins
Method: This example illustrates the improved solubility of the co-initiator mixtures compared to single component amine co-initiator compositions, illustrating the benefit of providing a composition comprising both the compound of Formula I and the ancillary amine. For comparison, the solubility of amine mixtures as provided by this invention, of which mixtures AM1-AM6 are representative examples, were tested alongside single component formulations comprising only the amines AC1-AC5.
Mixtures of amine synergists were prepared using one of the methods described above.
The solid amines AC1-AC5 or mixtures of amines AM1-AM6 were added portion-wise in 1% w/w portions to stirred 5.0 g samples of the following acrylate resins and the samples were stirred at 15-20° C. until all solid material was completely dissolved: HDDA (1,6-hexanediol diacrylate), TMPTA (trimethylolpropane triacrylate), TPGDA (tripropyleneglycol diacrylate). At the concentrations given below (Table 2a-2k) all solids remained in solution for at least 7 days at 15-20° C. unless otherwise stated. In cases where the solids began to crystallise out of solution within this time the mixtures were warmed to approx. 40° C. to re-dissolve the solids and the concentrations were adjusted to the given values by the addition of extra resin, whereupon the solids remained dissolved at the adjusted concentration for at least 7 days at 15-20° C. Solubility above 10% w/w was not tested in any case. The weight % is based on the total weight of the mixture.

[2] = UV curing experiments: passes under Hg lamp to tack-free / thumb-twist cure; settings: approx. 16 m/min belt speed, 0.20 g amine in 4.0 g resin with 1% 2-ITX and 4% BP
Method: The following example illustrates the high curing speed of co-initiators which contain the compound of Formula I and the ancillary amine. For comparison, the commercially available amine co-initiators SpeedCure EDB (Lambson Limited) and diffusion-hindered polymeric amine SpeedCure 7040 (Lambson Limited) were also tested. Additionally, the pure amines AC1-AC5 were tested alongside the mixtures provided by this invention, of which the mixtures AM1-AM6 are representative examples.
The amine co-initiators or co-initiator mixtures (0.20 g) were added to a resin mixture (4.0 g) containing 1% w/w SpeedCure 2-ITX (Lambson Limited) and 4% w/w SpeedCure BP (Lambson Limited) in 70:30 ethoxylated bisphenol A dimethacrylate (EO/phenol 10):trimethylolpropane triacrylate with stirring at 15-20° C. until all solid material had dissolved.
Formulations were cured at 6 and 24 μm film thicknesses under Hg lamp using a Dymax curing instrument with approx. 16 m/min belt speed. The number of passes under the lamp required to give a ‘tack-free’ (TF) coating (as determined when the surface of the coating no longer feels sticky when lightly touched) or full cure as determined by the ‘thumb-twist’ test (TT) (i.e. until no visible mark is made when a thumb is pressed down firmly onto the coating with a twisting motion) are given in Table 3.

[3] = in HDDA (1,6-hexanediol diacrylate)
[4] = in TMPTA (trimethylolpropane triacrylate)
[5] = in TPGDA (tripropyleneglycol diacrylate)

| Structure (SMILES) | Solubility (% w/w at ~15-20° C.) [1, 3] [% w/w] | Solubility (% w/w at ~15-20° C.) [1, 4] [% w/w] | Solubility (% w/w at ~15-20° C.) [1, 5] [% w/w] | No. of Passes Required, TF (tack-free) ([2]; 6 μm film) [passes] | No. of Passes Required, TT (thumb-twist, full cure) ([2]; 6 μm film) [passes] | No. of Passes Required, TF (tack-free) ([2]; 24 μm film) [passes] | No. of Passes Required, TT (thumb-twist, full cure) ([2]; 24 μm film) [passes] | Time until solid crystallised out of solution ([1]; initially dissolved at 2% w/w, all three resins) [h] | Dissolution of the solid material [1] |
| --- | --- | --- | --- | --- | --- | --- | --- | --- | --- |
| CCC(COCC(CC)(COC(=O)c1ccc(N(C)C)cc1)COC(=O)c1ccc(N(C)C)cc1)(COC(=O)c1ccc(N(C)C)cc1)COC(=O)c1ccc(N(C)C)cc1 [AC1] | 5 | 4 | 3 | 1 | 5 | 1 | 2 |  |  |
| CCC(CO)(COCC(CC)(COC(=O)c1ccc(N(C)C)cc1)COC(=O)c1ccc(N(C)C)cc1)COC(=O)c1ccc(N(C)C)cc1 (stereo not drawn) [AC2] | 10 | 10 | 10 | 1 | 6 | 1 | 2 |  |  |
| CCC(COC(=O)c1ccc(N(C)C)cc1)(COC(=O)c1ccc(N(C)C)cc1)COC(=O)c1ccc(N(C)C)cc1 [AC3] | <2 | <2 | <2 |  |  |  |  | ≤ 24 |  |
| CN(C)c1ccc(C(=O)OCC(COC(=O)c2ccc(N(C)C)cc2)(COC(=O)c2ccc(N(C)C)cc2)COC(=O)c2ccc(N(C)C)cc2)cc1 [AC4] | <1 | <1 | <1 |  |  |  |  |  | would not dissolve |
| CN(C)c1ccc(C(=O)OCC(COC(=O)c2ccc(N(C)C)cc2)OC(=O)c2ccc(N(C)C)cc2)cc1 [AC5] | <1 | <1 | <1 |  |  |  |  |  | would not dissolve |
| CCOC(=O)c1ccc(N(C)C)cc1 [SpeedCure EDB, ethyl 4-(dimethylamino)benzoate, reference compound] |  |  |  | 1 | 6 | 1 | 2 |  |  |
